From PubChem BioAssay (NCI)
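Test compounds were applied to cells in 96-well plates for 48 hours at 5 doses. Abbreviation: GI50, concentration required for 50% inhibition of growth. The concentration for full growth arrest is given as TGI.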

Key:
Assay in all cases: DTP human tumour cell line panel, 48 h
786-0 renal = system: 786-0 renal
A498 renal = system: A498 renal
A549 NSCLC = system: A549 NSCLC
ACHN renal = system: ACHN renal
BT-549 breast = system: BT-549 breast
CAKI-1 renal = system: CAKI-1 renal
CCRF-CEM leukemia = system: CCRF-CEM leukemia
COLO 205 colon = system: COLO 205 colon
DU-145 prostate = system: DU-145 prostate
EKVX NSCLC = system: EKVX NSCLC
HCC-2998 colon = system: HCC-2998 colon
HCT-116 colon = system: HCT-116 colon
HCT-15 colon = system: HCT-15 colon
HL-60(TB) leukemia = system: HL-60(TB) leukemia
HOP-62 NSCLC = system: HOP-62 NSCLC
HOP-92 NSCLC = system: HOP-92 NSCLC
HS 578T breast = system: HS 578T breast
HT29 colon = system: HT29 colon
IGROV1 ovarian = system: IGROV1 ovarian
K-562 leukemia = system: K-562 leukemia
KM12 colon = system: KM12 colon
LOX IMVI melanoma = system: LOX IMVI melanoma
M14 melanoma = system: M14 melanoma
MALME-3M melanoma = system: MALME-3M melanoma
MCF7 breast = system: MCF7 breast
MDA-MB-231 breast = system: MDA-MB-231 breast
MDA-MB-435 = system: MDA-MB-435
MDA-MB-468 breast = system: MDA-MB-468 breast
MOLT-4 leukemia = system: MOLT-4 leukemia
NCI-H226 lung = system: NCI-H226 lung
NCI-H23 lung = system: NCI-H23 lung
NCI-H460 lung = system: NCI-H460 lung
NCI-H522 lung = system: NCI-H522 lung
NCI/ADR-RES ovarian = system: NCI/ADR-RES ovarian
OVCAR-3 ovarian = system: OVCAR-3 ovarian
OVCAR-4 ovarian = system: OVCAR-4 ovarian
OVCAR-5 ovarian = system: OVCAR-5 ovarian
OVCAR-8 ovarian = system: OVCAR-8 ovarian
PC-3 prostate = system: PC-3 prostate
RPMI-8226 leukemia = system: RPMI-8226 leukemia
RXF 393 renal = system: RXF 393 renal
SF-268 CNS = system: SF-268 CNS
SF-295 CNS = system: SF-295 CNS
SF-539 CNS = system: SF-539 CNS
SK-MEL-2 melanoma = system: SK-MEL-2 melanoma
SK-MEL-28 melanoma = system: SK-MEL-28 melanoma
SK-MEL-5 melanoma = system: SK-MEL-5 melanoma
SK-OV-3 ovarian = system: SK-OV-3 ovarian
SN12C renal = system: SN12C renal
SNB-19 CNS = system: SNB-19 CNS
SNB-75 CNS = system: SNB-75 CNS
SR leukemia = system: SR leukemia
SW-620 colon = system: SW-620 colon
T-47D breast = system: T-47D breast
TK-10 renal = system: TK-10 renal
U251 CNS = system: U251 CNS
UACC-257 melanoma = system: UACC-257 melanoma
UACC-62 melanoma = system: UACC-62 melanoma
UO-31 renal = system: UO-31 renal

O=C(O)CCCCCCCCCCN1C(=O)/C(=C/c2cnc(-c3ccc(Cl)cc3)s2)SC1=S
GI50 (786-0 renal): 2.64 µM | TGI (786-0 renal): 9.67 µM | GI50 (A498 renal): 15.9 µM | TGI (A498 renal): 34.5 µM | GI50 (A549 NSCLC): 1.01 µM | TGI (A549 NSCLC): 4.51 µM | GI50 (ACHN renal): 2.38 µM | TGI (ACHN renal): 11.7 µM | GI50 (BT-549 breast): 1.95 µM | TGI (BT-549 breast): 6.1 µM | GI50 (CAKI-1 renal): 3.31 µM | TGI (CAKI-1 renal): 14.3 µM | GI50 (CCRF-CEM leukemia): 3.11 µM | TGI (CCRF-CEM leukemia): > 100 µM | GI50 (COLO 205 colon): > 100 µM | TGI (COLO 205 colon): > 100 µM | GI50 (DU-145 prostate): 1.81 µM | TGI (DU-145 prostate): 30 µM | GI50 (EKVX NSCLC): 1.84 µM | TGI (EKVX NSCLC): 5.13 µM | GI50 (HCC-2998 colon): 5.03 µM | TGI (HCC-2998 colon): > 100 µM | GI50 (HCT-116 colon): 1.75 µM | TGI (HCT-116 colon): 7.51 µM | GI50 (HCT-15 colon): 1.71 µM | TGI (HCT-15 colon): 3.67 µM | GI50 (HL-60(TB) leukemia): 3.91 µM | TGI (HL-60(TB) leukemia): > 100 µM | GI50 (HOP-62 NSCLC): 3.81 µM | TGI (HOP-62 NSCLC): 15.9 µM | GI50 (HOP-92 NSCLC): 0.292 µM | TGI (HOP-92 NSCLC): 1.79 µM | GI50 (HS 578T breast): 11.7 µM | TGI (HS 578T breast): > 100 µM | GI50 (HT29 colon): > 100 µM | TGI (HT29 colon): > 100 µM | GI50 (IGROV1 ovarian): 2.89 µM | TGI (IGROV1 ovarian): 13.7 µM | GI50 (K-562 leukemia): 3.71 µM | TGI (K-562 leukemia): > 100 µM | GI50 (KM12 colon): 2.93 µM | TGI (KM12 colon): > 100 µM | GI50 (LOX IMVI melanoma): 1.69 µM | TGI (LOX IMVI melanoma): 3.87 µM | GI50 (M14 melanoma): 2.1 µM | TGI (M14 melanoma): 5.71 µM | GI50 (MALME-3M melanoma): 5.92 µM | TGI (MALME-3M melanoma): 28.1 µM | GI50 (MCF7 breast): 3.73 µM | TGI (MCF7 breast): > 100 µM | GI50 (MDA-MB-231 breast): 1.65 µM | TGI (MDA-MB-231 breast): 4.48 µM | GI50 (MDA-MB-435): 4.69 µM | TGI (MDA-MB-435): > 100 µM | GI50 (MDA-MB-468 breast): 2.63 µM | TGI (MDA-MB-468 breast): 12 µM | GI50 (MOLT-4 leukemia): 3.39 µM | TGI (MOLT-4 leukemia): > 100 µM | GI50 (NCI-H226 lung): 6.46 µM | TGI (NCI-H226 lung): 57.2 µM | GI50 (NCI-H23 lung): 2.43 µM | TGI (NCI-H23 lung): 8.95 µM | GI50 (NCI-H460 lung): 1.37 µM | TGI (NCI-H460 lung): > 100 µM | GI50 (NCI-H522 lung): 1.68 µM | TGI (NCI-H522 lung): 4.55 µM | GI50 (NCI/ADR-RES ovarian): 1.69 µM | TGI (NCI/ADR-RES ovarian): 8.18 µM | GI50 (OVCAR-3 ovarian): 4.87 µM | TGI (OVCAR-3 ovarian): 51.4 µM | GI50 (OVCAR-4 ovarian): 5.56 µM | TGI (OVCAR-4 ovarian): > 100 µM | GI50 (OVCAR-5 ovarian): 2.59 µM | TGI (OVCAR-5 ovarian): > 100 µM | GI50 (OVCAR-8 ovarian): 1.65 µM | TGI (OVCAR-8 ovarian): 5.11 µM | GI50 (PC-3 prostate): 1.26 µM | TGI (PC-3 prostate): 4.9 µM | GI50 (RPMI-8226 leukemia): 10.3 µM | TGI (RPMI-8226 leukemia): > 100 µM | GI50 (RXF 393 renal): 12.1 µM | TGI (RXF 393 renal): 47.3 µM | GI50 (SF-268 CNS): 4.99 µM | TGI (SF-268 CNS): > 100 µM | GI50 (SF-295 CNS): 2.29 µM | TGI (SF-295 CNS): 7.26 µM | GI50 (SF-539 CNS): 3.18 µM | TGI (SF-539 CNS): 13.2 µM | GI50 (SK-MEL-2 melanoma): 2.12 µM | TGI (SK-MEL-2 melanoma): 5.02 µM | GI50 (SK-MEL-28 melanoma): 2.69 µM | GI50 (SK-MEL-5 melanoma): 1.86 µM | TGI (SK-MEL-5 melanoma): 4.74 µM | GI50 (SK-OV-3 ovarian): 3.24 µM | TGI (SK-OV-3 ovarian): 8.72 µM | GI50 (SN12C renal): 1.39 µM | TGI (SN12C renal): 2.89 µM | GI50 (SNB-19 CNS): 2.86 µM | TGI (SNB-19 CNS): 9.76 µM | GI50 (SNB-75 CNS): 15.4 µM | TGI (SNB-75 CNS): 42.3 µM | GI50 (SR leukemia): 0.367 µM | TGI (SR leukemia): 4.8 µM | GI50 (SW-620 colon): 2.52 µM | TGI (SW-620 colon): 7.21 µM | GI50 (T-47D breast): 4.77 µM | TGI (T-47D breast): > 100 µM | GI50 (TK-10 renal): 5.48 µM | TGI (TK-10 renal): 16.1 µM | GI50 (U251 CNS): 2.07 µM | TGI (U251 CNS): 6.06 µM | GI50 (UACC-257 melanoma): 5.6 µM | TGI (UACC-257 melanoma): > 100 µM | GI50 (UACC-62 melanoma): 1.57 µM | TGI (UACC-62 melanoma): 3.29 µM | GI50 (UO-31 renal): 3.76 µM | TGI (UO-31 renal): 28.2 µM
